The values below come from patent US20220356538A1, “HEPATITIS B VIRUS MUTANTS WITH INCREASED […] CIRCULAR DNA” (The Penn State Research Foundation, priority 2019, published 2022).

One assay relates to HBV core DNA. As to the kind of experiment: HBV core DNA synthesis: Southern blot of NC-associated core DNA from transfected cells. The assay is classed as cell-based, Hepatitis B virus. An excerpt:
(§1) FIG. 1. Effects of HBc linker mutations on cccDNA levels and NC stability. HBV replication plasmids expressing either the wild type (wt) HBc or indicated linker mutants were transfected into human hepatoma cells (HepG2). HBV DNA associated with NCs (core DNA) (lanes 1-8), or protein-free DNA (PF-DNA) (i.e., those DNA species no longer covalently attached to the viral RT protein and mostly released from NCs) (lanes 9-12) was extracted from the transfected cells and analyzed by Southern blot analysis using a radio-labeled HBV DNA probe. The core DNA shown in lanes 5-8 was extracted following prior treatment of the cell lysate with an exogenous DNase, which removes core DNA that was not protected by the capsid (i.e., from destabilized NCs). RC, rcDNA; CCC, cccDNA; SS, single stranded DNA—a reverse transcription intermediate during the synthesis of rcDNA from pgRNA.
FIG. 4. HBc linker mutants increased HBV CCC DNA by 2-30 fold. Data are shown for LC (S141T/V148I/V149I), S141A, S141D, S141R, L143A, L143I, E145D, and TT146/147AA (a combination of T146A and T147A; aka T146A/T147A).

The subject of a further assay is HBV cccDNA. As to the kind of experiment: HBV cccDNA levels: Southern blot of protein-free DNA from HepG2 cells transfected with HBV replication plasmids. The assay is classed as cell-based, Hepatitis B virus.
From the text: as §1
FIG. 3. Effects of HBc linker and envelope mutations on cccDNA levels. […] HBV DNA associated with NCs (core DNA; A), or protein-free DNA (PF-DNA; B) (i.e., those DNA species no longer covalently attached to the viral RT protein and mostly released from NCs) was extracted from the transfected cells and analyzed by Southern blot analysis using a radio-labeled HBV DNA probe. […]

L140A [Mutant L140A]: the “HBV core DNA synthesis” value in the assay on HBV core DNA is “blocked HBV core DNA synthesis”. In the assay on HBV cccDNA, the cccDNA formation result is given as “no cccDNA was made”.
